Results reported in publication PMC5910287 (ACS chemical biology, 2018).

Test system: L. lactis HP
Test: Minimal inhibitory concentrations determined in liquid media
Assay type: cell-based, Lactococcus lactis
Conditions: serial two-fold dilution, Fig. S12

lacticin 481 [wt-lacticin 481] was tested, and the Minimal inhibitory concentration was 0.39 µM.
